Legend:
[1] = Animal pharmacokinetic study in rats, single gavage; format: in vivo; conditions: rat, po; male rats, single gavage 5 mg/kg, plasma
Method: Three healthy adult male rats from Beijing Vital River Experimental animal Technology Co. Ltd were used for animal pharmacokinetic experiments. The compounds were suspended in 20% sulfobutyl ether-β-cyclodextrin (W/W/V) at a concentration of 1 mg/mL at a dosing volume of 5 mL/kg by single gavage at a dose of 5 mg/kg. Animals were fasted overnight before the experiment, from 10 hours before the administration to 4 hours after the administration. Blood was collected at 0.25, 0.5, 1, 2, 4, 6, 8, and 24 hours after the administration. The animals were anesthetized with isoflurane. About 0.4 mL of whole blood was collected from the orbital venous plexus using a glass blood collection tube and placed in a heparin anticoagulant tube. The sample was centrifuged at 4200 rpm for 5 min at 4° C. The plasma was transferred to a centrifuge tube and stored at −80° C. for later analysis. The plasma sample analysis used the acetonitrile protein precipitation method to extract the compound to be tested and internal standard (Warfarin or Propranolol) from rat plasma, and the extraction solution was analyzed by LC/MS/MS. The plasma concentration-time data of individual animals measured were analyzed using anon-compartmental model using the WinNonlin (version 5.2.1; Pharsight company) software, and the following pharmacokinetic parameters were obtained: maximum (peak) plasma drug concentration Cmax; Time to max Tmax; the area under the curve AUC0-inf of blood drug concentration-time from half-life T½ and extrapolation to infinite time.

LMP7 [2] = biological target: T1, LMP7 (Homo sapiens, UniProt P28062); assay: Enzymatic inhibitory activity on LMP7 (MOLT-4 cell lysate, Ac-ANW-AMC substrate); format: biochemical; conditions: 1 hour pre-incubation
T1 construct: using MOLT-4 cell lysate as the enzyme source of LMP7; endogenous in cells; host or cells: MOLT-4 (human acute lymphoblastic leukemia cells)
How it was run: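 Enzyme source was MOLT-4 cell lysate (20 ng/μl final) in 20 mM Tris pH 8.0, 0.5 mM EDTA, preincubated 1 h at 23 °C with compound at 9 final concentrations (0–2000 nM). Ac-ANW-AMC ([…]) was then added, 2 h at 23 °C in the dark. AMC fluorescence (ex 345/em 445 nm) gave the IC50.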

β5 = biological target: T2, β5 (Homo sapiens, UniProt P28074); assay: Enzymatic inhibitory activity on β5 (HEK-293 cell lysate, Ac-WLA-AMC substrate); format: biochemical; conditions: 1 hour pre-incubation
T2 construct: using HEK-293 cell lysate as the enzyme source of D5; endogenous in cells; host or cells: HEK-293 (human embryonic kidney cells)
How it was run: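 HEK-293 lysate (25 ng/μl final) preincubated 1 h at 23 °C with compound (9-point, 5-fold dilutions) in 20 mM Tris pH 8.0, 0.5 mM EDTA. Ac-WLA-AMC then added at 20 μM final for 2 h at 23 °C in the dark. AMC fluorescence read at Ex 345/Em 445 nm; IC50 from curve fit.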

LMP7 [3] = biological target: T1, LMP7; assay: Cytological inhibitory activity on LMP7 in MOLT-4 cells; format: cell-based; conditions: incubation for 2 hours with compound, read-out: Cytological activity data LMP7 Activity (MOLT-4Cell)
How it was run: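 MOLT-4 cells pre-incubated 2 h with compound (8 concentrations, 5-fold dilution series from 2 mM DMSO stock, 5% FBS), washed and lysed. Lysate (20 ng/μl, 2× stock) reacted with Ac-ANW-AMC (100 μM, 2× stock) in 20 mM Tris pH 8.0, 0.5 mM EDTA, 1 h, 23 °C. Fluorescence at 345/445 nm; IC50 fitted.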

Row | Structure (SMILES) | AUC(0-inf) [1] | Cmax [1] | Tmax [1] | half-life [1] | IC50 (LMP7 [2]) | IC50 (β5) | IC50 (LMP7 [3])
1 | O=C(N[C@@H](Cc1coc2ccccc12)B(O)O)C(=O)N1CCOCC1 [Ex. 5, (R)-(2-(benzofuran-3-yl)-1-(2-morpholino-2-oxoacetamido)ethyl)boronic acid] | 20900 ng·h/mL | 3800 ng/mL | 1.17 h | 4.2 h | 15.6 nM |  | 
2 | O=C(Nc1nccs1)C(=O)N[C@@H](Cc1coc2ccccc12)B(O)O [Ex. 25, (R)-(2-(benzofuran-3-yl)-1-(2-oxo-2-(thiazol-2-ylamino)acetamido)ethyl) boronic acid] | 108000 ng·h/mL | 7710 ng/mL | 0.42 h | 14.4 h |  |  | 
3 | CC1(C)[C@@H]2C[C@H]3OB([C@H](Cc4coc5ccccc45)NC(=O)C(=O)Nc4ccc(F)cc4F)O[C@@]3(C)[C@H]1C2 [Ex. 54, (R)-(2-(benzofuran-3-yl)-1-(2-oxo-2-(2,4-difluorophenylamino)acetamido)ethyl)boronic acid (1S,2S,3R,5S)-(+)-pinane-2,3-diol ester] |  |  |  |  | 0.89 nM | 23.7 nM | 5.33 nM
4 | O=C(Nc1ccc(F)cc1F)C(=O)N[C@@H](Cc1coc2ccccc12)B(O)O [Ex. 55, (R)-(2-(benzofuran-3-yl)-1-(2-oxo-2-(2,4-difluorophenylamino)acetamido)ethyl)boronic acid] |  |  |  |  | 1.43 nM | 54.6 nM | 6.84 nM
5 | O=C(N[C@@H](Cc1coc2ccccc12)B(O)O)C(=O)N1CCCC(F)(F)C1 [Ex. 56, (R)-(2-(benzofuran-3-yl)-1-(2-oxo-2-(3,3-difluoropiperidin-1-yl)acetamido)ethyl)boronic acid] |  |  |  |  | 7.48 nM | 88.4 nM | 6.39 nM
6 | Cn1cccc(NC(=O)C(=O)N[C@@H](Cc2coc3ccccc23)B2O[C@@H]3C[C@@H]4C[C@@H](C4(C)C)[C@]3(C)O2)c1=O [Ex. 57, (R)-(2-(benzofuran-3-yl)-1-(2-oxo-2-((1-methyl-2-oxo-1,2-dihydropyridin-3-yl)amino)acetamido)ethyl)boronic acid (1S,2S,3R,5S)-(+)-pinane-2,3-diol ester] |  |  |  |  | 1.32 nM | 140 nM | 4.03 nM
7 | Cn1cccc(NC(=O)C(=O)N[C@@H](Cc2coc3ccccc23)B(O)O)c1=O [Ex. 58, (R)-(2-(benzofuran-3-yl)-1-(2-oxo-2-((1-methyl-2-oxo-1,2-dihydropyridin-3-yl)amino)acetamido)ethyl)boronic acid] |  |  |  |  | 0.95 nM | 84.1 nM | 5.45 nM
8 | COC(=O)C(=O)N[C@@H](Cc1coc2ccccc12)B1O[C@@H]2CC3C[C@@H](C3(C)C)[C@]2(C)O1 [Ex. 61, (R)-(2-(benzofuran-3-yl)-1-(2-oxo-2-methoxyacetamido)ethyl)boronic acid (1S,2S,3R,5S)-(+)-pinane-2,3-diol ester] |  |  |  |  | 4.27 nM | 722 nM | 46.6 nM
9 | COC(=O)C(=O)N[C@@H](Cc1coc2ccccc12)B(O)O [Ex. 62, (R)-(2-(benzofuran-3-yl)-1-(2-oxo-2-methoxyacetamido)ethyl)boronic acid] |  |  |  |  | 7.89 nM | 1300 nM | 26.7 nM
10 | O=C(Nc1cccnc1Cl)C(=O)N[C@@H](Cc1coc2ccccc12)B(O)O [Ex. 64, (R)-(2-(benzofuran-3-yl)-1-(2-oxo-2-((2-chloropyridin-3-yl)amino)acetamido)ethyl)boronic acid] |  |  |  |  | 2.31 nM | 25.4 nM | 1.79 nM
11 | CC1COB([C@H](Cc2coc3ccccc23)NC(=O)C(=O)Nc2cnccn2)O1 (stereo partly drawn) [Ex. 68] |  |  |  |  | 1.24 nM | 34.8 nM | 1.1 nM
12 | C[C@@H]1COB([C@H](Cc2coc3ccccc23)NC(=O)C(=O)Nc2cnccn2)O1 [Ex. 69] |  |  |  |  | 1.44 nM | 18.2 nM | 0.88 nM
13 | O=C(Nc1cnccn1)C(=O)N[C@@H](Cc1coc2ccccc12)B1OCCCO1 [Ex. 70] |  |  |  |  | 1.5 nM | 26 nM | 0.91 nM
14 | CC1(C)COB([C@H](Cc2coc3ccccc23)NC(=O)C(=O)Nc2cnccn2)OC1 [Ex. 71] |  |  |  |  | 1.18 nM | 28.5 nM | 1.35 nM
15 | CC1(C)CC(C)(C)OB([C@H](Cc2coc3ccccc23)NC(=O)C(=O)Nc2cnccn2)O1 [Ex. 72] |  |  |  |  | 1.46 nM | 21.8 nM | 0.98 nM
